Key:
[1] = Viability assay (MTT) in EpiDerm skin model; type: cell-based; conditions: human, EpiDerm skin model (MatTek), relative to PBS control, average over 500 μM and 2 mM, read-out: total average viability
Text: FIG. 16 provides a bar graph showing the percent living cells, relative to a positive control, in a skin model after treatment with two concentrations of peptide. The first sample, treated with phosphate buffered saline (PBS), is the positive control used to establish the cell count representing 100% viability. The second sample is a negative control where cells were exposed to 1% Triton-X100, showing that the assay can detect cell death. […] Data shown represent the average of three tests.
The sample containers were transferred to 6 well plates that contained fresh media. All peptides were dissolved in PBS at a final concentration of 10 mM, and 100 μL each peptide solution was pipetted onto the surface of the Epiderm sample container. Incubation was continued for 12 hours at 37° C., 5% CO2. After the incubation period, the sample containers were washed three times with PBS and the sample containers were transferred to a 24 well plate that contained 300 μL of MTT assay media per well (MTT concentration was 1 mg/mL). The colorimetric assay was allowed to develop for three hours (incubation at 37° C., 5% CO2). Sample containers were then transferred to a 24 well culture plate that contained 2 mL of isopropanol per well. Extraction of the colored precipitate occurred over a period of four hours at room temperature. Absorbance readings were taken at 570 nm and 650 nm for each sample. The percent viability of each sample relative to a PBS control was calculated as: 100×(OD570^sam−OD650^sam)/(OD570^con−OD650^con) (6) Routinely, the peptide sample was assayed in triplicate. Results The sequence of matrix metalloproteinase-2 (SEQ ID NO:14) is provided below to facilitate definition of the various domains and regions in matrix metalloproteinases.

[2] = test system: normal human epidermal keratinocytes (Clonetics, CC-2503); assay: Keratinocyte proliferation assay; type: cell-based; conditions: 48 hours
Method: The proliferative response of these human skin keratinocytes to the 19mer peptide (SEQ ID NO:11) was measured in a 96-well assay system using keratinocyte basal medium (KBM, Clonetics, catalog number CC-3103) as a control. […] The plates were incubated for 24 hours at 37° C. in a humidified 5% CO2 atmosphere. […] In addition, 100 μl of vehicle KBM was added to 10 wells as control. The plate was incubated for 48 hours at 37° C. in a humidified, 5% CO2 atmosphere. After incubation, 20 μl of Cell Titer 96 Aqueous One Solution was added to all wells. The plate was swirled gently and placed back in the incubator for 3 hours. The spectrophotometric absorbance of each well was read at 490 nm. Results were analyzed statistically using one-way ANOVA.

[3] = test system: human skin fibroblast cell line (Clonetics, CC-2509); assay: Collagen production in human skin fibroblasts (Takara EIA kit); type: cell-based; conditions: for collagen production, Median (absorbance at 450 nm) / collagen production, Mean (absorbance at 450 nm): 48 hours; for collagen production, Mean (absorbance at 450 nm): n=2, control mean 0.7388
Method: The stimulation response of the 19mer peptide (SEQ ID NO:11) on collagen production in the human skin fibroblast cell line (Clonetics, Walkersville, Md., normal human dermal fibroblasts, neonatal, catalog number CC-2509) was measured using Takara Biomedicals EIA assay kit (TAK MK101) sold by Panvera (Madison, Wis.). The cells were first grown in a 96-well assay system using Dulbecco's Modified Eagle's Medium (DMEM) with 10% fetal bovine serum (FBS) both purchased from Sigma Chemical Co, St. Louis, Mo. Serum-free DMEM was used as a control. […] Plates were incubated for 24 hours at 37° C. in a humidified 5% CO2 atmosphere. After incubation, the medium was aspirated and the wells were rinsed twice with 100 μl of serum-free DMEM. […] In addition, 100 μl of vehicle (serum-free DMEM) was added to 4 wells as control. All wells were incubated for 48 hours at 37° C. in a humidified, 5% CO2 atmosphere.
The assay was performed using the recommended 20 ul of the supernatant from each well of the 96-well plate. Standard buffer and stop solutions were freshly prepared before running the assay. 100 ul of antibody-POD conjugate solution (supplied with the kit) was added into the wells using pre antibody coated 96 well plate (supplied with the kit). 20 ul of standard and test solutions (from the other 96-well plate containing fibroblasts) were added to appropriate wells. Plate was mixed gently, sealed and incubated for three hrs. at 37° C.
After incubation each well was washed carefully four times with PBS buffer (400 ul). All the wells were completely emptied at the end of washing from any liquid. 100 ul of substrate solution (hydrogen peroxide and tetramethylbenzidine in a buffer solution, supplied with the kit) was added to each well and the plate was incubated for 15 minutes. At this point 100 ul of stop solution (freshly prepared 1N H2SO4) was added to each well in the same order as substrate. The plate was gently mixed and absorbance was read at 450 nm. Results were analyzed statistically using one-way ANOVA.

[4] = test system: wounds in C57BL6/KsJ db/db mice; assay: Wound healing in db/db diabetic mice; type: in vivo
Text: Wounds were created in C57BL6/KsJ db/db mice with a 4 mm biopsy punch. The mice were obtained from The Jackson Laboratories and were aged 3-7 months before the onset of the wounding protocol. All mice were anesthetized prior to wounding. Two wounds were introduced onto the upper back of each animal by pulling the skin away from underlying structures and pushing the punch through the isolated skin. Typically, wounds were created to an average depth of 1.7 mm, with a range of 1.3 to 2.2 mm. No muscle involvement occurred during the course of wounding.
Each day the wounds were digitally photographed and wound areas were determined by computer integration of the photographs. All wound treatments and the subsequent data analyses were performed in a blind manner (see e.g., Brown et al., 1994). Wound area at the time of wounding (day 0) is arbitrarily set to a relative value of 1 for all wounds; such that subsequent wound areas are converted to relative wound areas by dividing the wound area at day n by the wound area at day zero.

With `CC(C)[C@H](NC(=O)[C@H](CC(=O)O)NC(=O)[C@@H]1CCCN1C(=O)[C@H](CC(N)=O)NC(=O)CNC(=O)[C@H](CS)NC(=O)[C@H](CCCNC(=N)N)NC(=O)[C@@H]1CCCN1)C(=O)N[C@@H](C)C(=O)N[C@@H](CC(N)=O)C(=O)N[C@@H](Cc1ccc(O)cc1)C(=O)N[C@@H](CC(N)=O)C(=O)N[C@@H](Cc1ccccc1)C(=O)N[C@@H](Cc1ccccc1)C(=O)N1CCC[C@H]1C(=O)N[C@@H](CCCNC(=N)N)C(=O)N[C@@H](CCCCN)C(=O)N1CCC[C@H]1C(=O)N[C@@H](CCCCN)C(=O)O` [19-mer] the viability at 12 h [1] was 97.6%, the “keratinocyte growth (OD 490 nm) versus control” value ([2]; 1×10^−4 M) was “even greater cell growth” and the “keratinocyte growth (OD 490 nm) versus control” value ([2]; 1×10^−5 M) was “significantly greater cell density”. For the same compound, the “keratinocyte growth (OD 490 nm) versus control” value ([2]; 1×10^−6 M) was “only a small amount of cell proliferation”, the “collagen production, Median (absorbance at 450 nm)” value ([3]; 1×10^−5 M) was 0.8365 and the “collagen production, Mean (absorbance at 450 nm)” value ([3]; 1×10^−5 M) was 0.8365. The “collagen production, Median (absorbance at 450 nm)” value ([3]; 1×10^−6 M) was 0.8315, the “collagen production, Mean (absorbance at 450 nm)” value ([3]; 1×10^−6 M) was 0.8315 and the “collagen production versus control” value ([3]; 10^−5 and 10^−6 M, P<0.001) was “increased collagen production at both concentrations employed”. The “time to full wound closure (average)” value ([4]; single dose 5 μL of 20 μg/mL at time of wounding, saline control 14 days) was 9 days post wounding and the “start of wound contraction process” value ([4]; single dose 5 μL of 20 μg/mL, saline control day 8) was 5 days.

Source: patent US7094754B2, “Anti-aging and wound healing compounds” (Kimberly-Clark Worldwide, Inc., priority 2001, dated 2006)
